Reference: the supplement of paper PMC10307832

Columns and labels:
Test in all cases: relative viability (nuclei count vs DMSO), 5 days (fraction); higher = more cells survive
[1] = compound: C1CC(C1)(C(=O)O)C(=O)O.[NH2-].[NH2-].[Pt+2] [Carboplatin] + Cc1nc(NC(=O)N2CCC[C@H]2C(N)=O)sc1-c1ccnc(C(C)(C)C(F)(F)F)c1 [Alpelisib] (partner 2 µM)
Summary of the method: (§1)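 One day after seeding in 1536-well plates, lung cancer cell lines were dosed by pin tool. Dosing was either single-drug or a fixed anchor-drug dose plus five library-drug doses (not always all listed) in √10 steps. After 5 days, nuclei were stained in one fix-and-stain step and counted on 4× images, and relative viability is the nuclei count of treated wells over that of vehicle wells, given as the median of duplicate plates.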

[2] = compound: CC[C@H](C)N1C=C(C2=C(C=C(C=C21)C3=CN=C(C=C3)N4CCNCC4)C(=O)NCC5=C(C=C(NC5=O)C)C)C [GSK126] + Nc1ncn([C@H]2C[C@H](O)[C@@H](CO)O2)c(=O)n1 [Decitabine] (partner 2 µM)
Summary of the method: as §1

[3] = compound: NS(=O)(=O)OC[C@@H]1C[C@@H](n2ccc3c(N[C@H]4CCc5ccccc54)ncnc32)C[C@@H]1O [MLN4924] + CS(=O)(=O)N1CCN(Cc2cc3nc(-c4cccc5[nH]ncc45)nc(N4CCOCC4)c3s2)CC1 [Pictilisib] (partner 1 µM)
Summary of the method: as §1

[4] = compound: NS(=O)(=O)OC[C@@H]1C[C@@H](n2ccc3c(N[C@H]4CCc5ccccc54)ncnc32)C[C@@H]1O [MLN4924] + N=C(N)NC(=N)NCCc1ccccc1 [Phenformin] (partner 250 µM)
Summary of the method: as §1

Cell Line | relative viability ([1]; first compound 0.08 µM) | relative viability ([1]; first compound 0.253 µM) | relative viability ([1]; first compound 0.8 µM) | relative viability ([1]; first compound 2.53 µM) | relative viability ([1]; first compound 8 µM) | relative viability ([2]; first compound 0.08 µM) | relative viability ([2]; first compound 0.253 µM) | relative viability ([2]; first compound 0.8 µM) | relative viability ([2]; first compound 2.53 µM) | relative viability ([2]; first compound 8 µM) | relative viability ([3]; first compound 0.04 µM) | relative viability ([3]; first compound 0.1265 µM) | relative viability ([3]; first compound 0.4 µM) | relative viability ([3]; first compound 1.265 µM) | relative viability ([3]; first compound 4 µM) | relative viability ([4]; first compound 0.04 µM) | relative viability ([4]; first compound 0.1265 µM) | relative viability ([4]; first compound 0.4 µM) | relative viability ([4]; first compound 1.265 µM) | relative viability ([4]; first compound 4 µM)
SK-MES-1 | 1.06 | 0.906 | 0.922 | 0.873 | 0.917 | 0.41 | 0.463 | 0.418 | 0.391 | 0.431 | 0.425 | 0.535 | 0.356 | 0.174 | 0.198 | 0.555 | 0.444 | 0.309 | 0.202 | 0.2
NCI-H1648 | – | – | – | – | – | 0.561 | 0.562 | 0.554 | 0.633 | 0.492 | – | – | – | – | – | – | – | – | – | –
PC-14 | 0.992 | 0.838 | 0.875 | 0.883 | 0.711 | 0.215 | 0.2 | 0.166 | 0.255 | 0.213 | 0.849 | 0.634 | 0.307 | 0.0791 | 0.0776 | 0.473 | 0.564 | 0.37 | 0.151 | 0.127
NCI-H1651 | 0.846 | 1.1 | 0.907 | 0.876 | 0.573 | 0.64 | 0.634 | 0.606 | 0.772 | 0.624 | 0.706 | 0.514 | 0.45 | 0.0787 | 0.115 | 0.347 | 0.317 | 0.313 | 0.171 | 0.157
HOP-62 | 0.746 | 0.991 | 1.09 | 0.922 | 0.77 | 0.216 | 0.203 | 0.21 | 0.197 | 0.248 | 0.521 | 0.428 | 0.0949 | 0.0537 | 0.103 | 0.393 | 0.335 | 0.134 | 0.0578 | 0.0991
HCC-44 | 0.904 | 0.887 | 0.733 | 0.717 | 0.635 | 0.918 | 1.06 | 1.06 | 0.89 | 0.971 | 0.641 | 0.474 | 0.0983 | 0.0904 | 0.127 | 0.144 | 0.172 | 0.0837 | 0.0692 | 0.102
HCC-15 | 0.93 | 0.93 | 0.84 | 0.761 | 0.707 | 0.739 | 0.656 | 0.685 | 0.59 | 0.609 | 0.475 | 0.343 | 0.172 | 0.0896 | 0.107 | 0.319 | 0.191 | 0.145 | 0.0825 | 0.0982
NCI-H460 | 0.462 | 0.424 | 0.325 | 0.322 | 0.0696 | 0.605 | 0.495 | 0.468 | 0.37 | 0.446 | 0.506 | 0.729 | 0.618 | 0.191 | 0.0906 | 0.548 | 0.448 | 0.496 | 0.0336 | 0.0252
NCI-H1299 | 1.06 | 1.11 | 0.997 | 1.02 | 0.909 | – | – | – | – | – | 0.378 | 0.398 | 0.153 | 0.0571 | 0.0769 | – | – | – | – | –
SK-LU-1 | 0.903 | 1.07 | 0.933 | 0.792 | 0.392 | 0.711 | 0.535 | 0.6 | 0.928 | 0.708 | 0.411 | 0.505 | 0.383 | 0.171 | 0.172 | 0.514 | 0.558 | 0.22 | 0.0997 | 0.131
COR-L 105 | 1.01 | 1.07 | 0.893 | 0.959 | 0.566 | 0.591 | 0.629 | 0.653 | 0.575 | 0.667 | 0.427 | 0.455 | 0.399 | 0.268 | 0.274 | 0.567 | 0.366 | 0.325 | 0.244 | 0.301
COR-L23 | 0.724 | 0.721 | 0.74 | 0.663 | 0.272 | 0.467 | 0.373 | 0.389 | 0.448 | 0.433 | 0.711 | 0.71 | 0.159 | 0.104 | 0.0964 | 0.42 | 0.332 | 0.326 | 0.133 | 0.0871
NCI-H3122 | 0.773 | 0.862 | 0.869 | 0.762 | 0.764 | 0.417 | 0.373 | 0.386 | 0.466 | 0.543 | 0.591 | 0.376 | 0.222 | 0.153 | 0.136 | 0.315 | 0.274 | 0.169 | 0.131 | 0.136
NCI-H23 | 0.659 | 0.75 | 0.623 | 0.681 | 0.635 | 0.314 | 0.337 | 0.3 | 0.268 | 0.334 | 0.249 | 0.288 | 0.183 | 0.0988 | 0.141 | 0.764 | 0.8 | 0.406 | 0.341 | 0.233
PC-3 [JPC-3] | 1.06 | 1.11 | 0.992 | 1 | 0.834 | 0.831 | 0.74 | 0.826 | 0.86 | 0.881 | 0.904 | 0.817 | 0.334 | 0.251 | 0.313 | 0.482 | 0.482 | 0.404 | 0.323 | 0.341
NCI-H2228 | 0.813 | 0.687 | 0.561 | 0.593 | 0.566 | – | – | – | – | – | – | 0.504 | 0.101 | 0.111 | 0.196 | 0.327 | 0.38 | 0.194 | 0.134 | 0.146
A549 | 0.811 | 0.901 | 0.854 | 0.674 | 0.234 | 0.224 | 0.299 | 0.26 | 0.253 | 0.272 | 0.5 | 0.474 | 0.246 | 0.0557 | 0.0729 | 0.0967 | 0.154 | 0.0425 | 0.0445 | 0.0437
